{
  "source": "patent US20200077655A1",
  "about": "“Use of an Acyclic Picolinamide Compound as a Fungicide for Control of Phytopathogenic Fungi in Orchard, Vineyard and Plantation Crops” (Dow AgroSciences LLC, priority 2017, published 2020)",
  "format_in_all_cases": "in vivo",
  "key": {"[1]": {"test_system": "Cladosporium carpopilum (CLADSP)", "assay": "Field assessment of almond scab", "details": "almond nut incidence, 121 DAAA", "source_text": "A fungicidal treatment containing Compound I, applied in an SC formulation (MSO built-in) and tank mixed with an adjuvant (Agnique BP-420, 50% w/w at 0.2% v/v or Adsee C80W 80%), was sprayed as a single application on almond trees (PRNDU, Winter variety) at rates of 60, 120, 150, and 180 g ai/ha. The experimental plots were run with natural infestation. The treatment was part of an experimental trial designed as a randomized complete block (RCB) with three replications and a plot of approximately 16×22 ft. Compound I was applied at water volume of 100 gal/acre, using a Mistblower sprayer (Orifice nozzle 2.3 setting).\nNut incidence (number of visual diseased nuts per 10 nuts per tree on whole plot) was assessed 121 days after application A (121 DAAA). Using Abbotts, % nut incidence of the treatments was used vs the nontreated to calculate % control."}, "[2]": {"test_system": "Mycosphaerella fijiensis (MYCOFI)", "assay": "Field assessment of black sigatoka on banana", "details": "bananas; for Area Under Disease Progression Curve (AUDPC) from severity assessments: 52-59 days after application; for Percent control calculated from severity percentage: 52 days after application", "procedure": "Aliquots of a 5% EC formulation of compound I were diluted with water and mixed with Spraytex CT mineral oil (6 L CP/Ha) to achieve active ingredient rates of 25, 50, 100 and 150 g ai/Ha. These treatments were delivered to the foliar affected area of single leaves (application volume of 40 L/Ha) by means of an Aerograph spayer through a plastic molding with an application area of 9×12 centimeters. A single application was delivered to leaf 1 (preventive and very early curative), and leaf 3 (curative effect). Experimental design was based on a randomized complete block, and 4 replications. MYCOFI symptoms resulted from natural inoculation and epidemic development.\nPercent disease control was calculated using the ratio of disease severity on treated leaves relative to untreated leaves. Black sigatoka infection was assessed five times during the trial: 31 days after application (31DAA), 38DAA, 45DAA, 52DAA and 59DAA. Area under the disease progress curve (AUDPC) was calculated for each plot using the sets of recorded severity data. Relative AUDPC (% control based on AUDPC) was calculated as percent of the nontreated control."}, "Venturia pyrina (VENTPI)": {"test_system": "Venturia pyrina (VENTPI)", "assay": "Field assessment of pear scab", "details": "pears, 15 days after final application", "source_text": "A 10% SC formulation of Compound I was tank mixed with three different adjuvants: Agnique BP420 (50% w/w at 0.3% v/v), Ethomeen T18H (50% w/w at 0.15% v/v) and Trycol (50% w/w at 0.3% v/v). Formulations of compound I were sprayed on the plant canopy of pear trees (Highland variety) of approximately 2.5 m in height at rates of 100, 150 and 200 grams of active ingredient per hectare (g ai/ha). The trial was based on six foliar applications during the growing season at approximately 12 day intervals with natural pear scab and sooty mold infections in open field conditions. The treatment was part of an experimental trial designed as a randomized complete block with four replications and a plot of approximately 3×5 m. Formulations of compound I were applied with a SOLO mistblower sprayer at a water volume of 1500 L/ha.\nFor VENTPI evaluation, percent control was calculated based on incidence and severity in fruit assessment vs the nontreated control on a random selection of 50 fruits per plot. For CAPDSP assessment, percent control was calculated from percent leaf severity using Abbotts and the nontreated control. Percent control for both diseases was calculated at 11DAAE, 7DAAF and 15DAAF."}, "[3]": {"test_system": "Stigmina carpophila (STIGCA)", "assay": "Field assessment of shot hole in almond, leaf and nut incidence", "details": "for Leaf Incidence of STIGCA 121 DAAA: untreated 3.1; for Nut Incidence of STIGCA 121 DAAA: untreated 6.3", "source_text": "A fungicidal treatment containing Compound I, applied in an SC formulation (MSO built-in) and tank mixed with an adjuvant (Adsee C80W 80%), was sprayed on almond trees (PRNDU, Butte variety), 2 applications, […] The experimental plots were run under natural infestation. The treatment was part of an experimental trial designed as a randomized complete block (RCB) with three replications and a plot of approximately 16×22 ft. Compound I was applied at water volume of 100 gal/acre, using a motorized backpack sprayer (Orifice nozzle 2.3 setting).\nLeaf incidence (number of visual diseased leaves per 20 leaves per tree on the whole plot) was assessed 121 days after application A (121 DAAA).\nNut incidence (number of visual diseased nuts per 10 nuts per tree on the whole plot) was assessed 121 days after application A (121 DAAA)."}, "[4]": {"details": "100 g ai/ha, adjuvant Agnique BP420 (first such line, r11)"}, "[5]": {"details": "100 g ai/ha, adjuvant Agnique BP420 (second such line, r13)"}, "[6]": {"details": "200 g ai/ha, adjuvant Agnique BP420"}, "[7]": {"details": "120 g ai/ha, Adsee C80W, 300 g ai/ha"}},
  "data": [
    {"smiles": "COc1ccnc(C(=O)N[C@@H](C)C(=O)O[C@@H](C)C(c2ccc(F)cc2)c2ccc(F)cc2)c1OC(C)=O", "note": "[Compound I, (S)-1,1-bis(4-fluorophenyl)propan-2-yl (3-acetoxy-4-methoxypicolinoyl)-L-alaninate]", "values": [
      {"measurement": "Calc Percent Control of CLADSP", "setting": "[1]; 60 g ai/ha, Agnique BP420, 240 mL/ha", "result": 47.3, "unit": "%"},
      {"measurement": "Calc Percent Control of CLADSP", "setting": "[1]; 60 g ai/ha, MSO, 120 g ai/ha", "result": 61.8, "unit": "%"},
      {"measurement": "Calc Percent Control of CLADSP", "setting": "[1]; 120 g ai/ha, Agnique BP420, 480 mL/ha", "result": 68.2, "unit": "%"},
      {"measurement": "Calc Percent Control of CLADSP", "setting": "[1]; 120 g ai/ha, MSO, 240 g ai/ha", "result": 97.0, "unit": "%"},
      {"measurement": "Calc Percent Control of CLADSP", "setting": "[1]; 150 g ai/ha, Agnique BP420, 600 mL/ha", "result": 69.7, "unit": "%"},
      {"measurement": "Calc Percent Control of CLADSP", "setting": "[1]; 150 g ai/ha, MSO, 300 g ai/ha", "result": 55.1, "unit": "%"},
      {"measurement": "Calc Percent Control of CLADSP", "setting": "[1]; 180 g ai/ha, Agnique BP420, 720 mL/ha", "result": 90.9, "unit": "%"},
      {"measurement": "Calc Percent Control of CLADSP", "setting": "[1]; 180 g ai/ha, MSO, 360 g ai/ha", "result": 39.5, "unit": "%"},
      {"measurement": "Area Under Disease Progression Curve (AUDPC) from severity assessments", "setting": "[2]; Leaf 1 (Preventive), 25 g ai/ha, untreated 665", "result": 198},
      {"measurement": "Percent control calculated from severity percentage", "setting": "[2]; Leaf 1 (Preventive), 25 g ai/ha", "result": "B (51-75)"},
      {"measurement": "Area Under Disease Progression Curve (AUDPC) from severity assessments", "setting": "[2]; Leaf 1 (Preventive), 50 g ai/ha, untreated 665", "result": 211},
      {"measurement": "Percent control calculated from severity percentage", "setting": "[2]; Leaf 1 (Preventive), 50 g ai/ha", "result": "B (51-75)"},
      {"measurement": "Area Under Disease Progression Curve (AUDPC) from severity assessments", "setting": "[2]; Leaf 1 (Preventive), 100 g ai/ha, untreated 665", "result": 203},
      {"measurement": "Percent control calculated from severity percentage", "setting": "[2]; Leaf 1 (Preventive), 100 g ai/ha", "result": "B (51-75)"},
      {"measurement": "Area Under Disease Progression Curve (AUDPC) from severity assessments", "setting": "[2]; Leaf 1 (Preventive), 150 g ai/ha, untreated 665", "result": 183},
      {"measurement": "Percent control calculated from severity percentage", "setting": "[2]; Leaf 1 (Preventive), 150 g ai/ha", "result": "B (51-75)"},
      {"measurement": "Area Under Disease Progression Curve (AUDPC) from severity assessments", "setting": "[2]; Leaf 3 (Curative), 25 g ai/ha, untreated 464", "result": 357},
      {"measurement": "Percent control calculated from severity percentage", "setting": "[2]; Leaf 3 (Curative), 25 g ai/ha", "result": "C (26-50)"},
      {"measurement": "Area Under Disease Progression Curve (AUDPC) from severity assessments", "setting": "[2]; Leaf 3 (Curative), 50 g ai/ha, untreated 464", "result": 317},
      {"measurement": "Percent control calculated from severity percentage", "setting": "[2]; Leaf 3 (Curative), 50 g ai/ha", "result": "C (26-50)"},
      {"measurement": "Area Under Disease Progression Curve (AUDPC) from severity assessments", "setting": "[2]; Leaf 3 (Curative), 100 g ai/ha, untreated 464", "result": 289},
      {"measurement": "Percent control calculated from severity percentage", "setting": "[2]; Leaf 3 (Curative), 100 g ai/ha", "result": "C (26-50)"},
      {"measurement": "Area Under Disease Progression Curve (AUDPC) from severity assessments", "setting": "[2]; Leaf 3 (Curative), 150 g ai/ha, untreated 464", "result": 293},
      {"measurement": "Percent control calculated from severity percentage", "setting": "[2]; Leaf 3 (Curative), 150 g ai/ha", "result": "C (26-50)"},
      {"measurement": "Percent control VENTPI, incidence in fruit assessment", "setting": "Venturia pyrina (VENTPI); [4]", "result": "B (51-75)"},
      {"measurement": "Percent control VENTPI, severity in fruit assessment", "setting": "Venturia pyrina (VENTPI); [4]", "result": "B (51-75)"},
      {"measurement": "Percent control VENTPI, incidence in fruit assessment", "setting": "Venturia pyrina (VENTPI); [5]", "result": "B (51-75)"},
      {"measurement": "Percent control VENTPI, severity in fruit assessment", "setting": "Venturia pyrina (VENTPI); [5]", "result": "A (76-100)"},
      {"measurement": "Percent control VENTPI, incidence in fruit assessment", "setting": "Venturia pyrina (VENTPI); 100 g ai/ha, adjuvant ETHOMEEN", "result": "C (26-50)"},
      {"measurement": "Percent control VENTPI, severity in fruit assessment", "setting": "Venturia pyrina (VENTPI); 100 g ai/ha, adjuvant ETHOMEEN", "result": "B (51-75)"},
      {"measurement": "Percent control VENTPI, incidence in fruit assessment", "setting": "Venturia pyrina (VENTPI); 100 g ai/ha, adjuvant None", "result": "C (26-50)"},
      {"measurement": "Percent control VENTPI, severity in fruit assessment", "setting": "Venturia pyrina (VENTPI); 100 g ai/ha, adjuvant None", "result": "B (51-75)"},
      {"measurement": "Percent control VENTPI, incidence in fruit assessment", "setting": "Venturia pyrina (VENTPI); 100 g ai/ha, adjuvant Trycol", "result": "B (51-75)"},
      {"measurement": "Percent control VENTPI, severity in fruit assessment", "setting": "Venturia pyrina (VENTPI); 100 g ai/ha, adjuvant Trycol", "result": "B (51-75)"},
      {"measurement": "Percent control VENTPI, incidence in fruit assessment", "setting": "Venturia pyrina (VENTPI); [6]", "result": "B (51-75)"},
      {"measurement": "Percent control VENTPI, severity in fruit assessment", "setting": "Venturia pyrina (VENTPI); [6]", "result": "B (51-75)"},
      {"measurement": "Leaf Incidence of STIGCA 121 DAAA", "setting": "[3]; 60 g ai/ha, MSO, 120 g ai/ha", "result": "3.0 Number of Leaves per 20 Leaves"},
      {"measurement": "Nut Incidence of STIGCA 121 DAAA", "setting": "[3]; 60 g ai/ha, MSO, 120 g ai/ha", "result": "5.6 Number of Nuts per 10 Nuts"},
      {"measurement": "Leaf Incidence of STIGCA 121 DAAA", "setting": "[3]; [7]", "result": "1.4 Number of Leaves per 20 Leaves"},
      {"measurement": "Nut Incidence of STIGCA 121 DAAA", "setting": "[3]; [7]", "result": "2.5 Number of Nuts per 10 Nuts"},
      {"measurement": "Leaf Incidence of STIGCA 121 DAAA", "setting": "[3]; 120 g ai/ha, MSO, 240 g ai/ha", "result": "2.2 Number of Leaves per 20 Leaves"},
      {"measurement": "Nut Incidence of STIGCA 121 DAAA", "setting": "[3]; 120 g ai/ha, MSO, 240 g ai/ha", "result": "6.0 Number of Nuts per 10 Nuts"},
      {"measurement": "Leaf Incidence of STIGCA 121 DAAA", "setting": "[3]; 150 g ai/ha, MSO, 300 g ai/ha", "result": "1.7 Number of Leaves per 20 Leaves"},
      {"measurement": "Nut Incidence of STIGCA 121 DAAA", "setting": "[3]; 150 g ai/ha, MSO, 300 g ai/ha", "result": "4.4 Number of Nuts per 10 Nuts"},
      {"measurement": "Leaf Incidence of STIGCA 121 DAAA", "setting": "[3]; 180 g ai/ha, MSO, 360 g ai/ha", "result": "1.9 Number of Leaves per 20 Leaves"},
      {"measurement": "Nut Incidence of STIGCA 121 DAAA", "setting": "[3]; 180 g ai/ha, MSO, 360 g ai/ha", "result": "4.4 Number of Nuts per 10 Nuts"}
    ]}
  ]
}
